From patent US6399614B1, “1-(N-phenylaminoalkyl)piperazine derivatives substituted at position 2 of the phenyl ring” (Recordati S.A. Chemical and Pharmaceutical Company, priority 1997, dated 2002)
Read-outs that look alike come from different tables or passages of the source.

Tests used:
[1] = tested on: rhythmic bladder voiding contractions; experiment: Volume-induced rhythmic bladder voiding contractions in anaesthetized rats; assay type: in vivo, rat; conditions: for ED (10 min disappearance of contractions) / ED50: Rattus norvegicus; for ED (10 min disappearance of contractions): read-out: ED10 min
Experimental: Female Sprague Dawley rats weighing 225-275 g (Crl: CDo BR, Charles River Italia) were used. The animals were housed with free access to food and water and were maintained on a forced 12 h alternating light-dark cycle at 22-24° C. for at least one week, except during the experiment. The activity on the rhythmic bladder voiding contractions was evaluated according to the method of Dray (J. Pharmacol. Methods, 13:157, 1985), with some modifications as in Guarneri (Pharmacol. Res., 27:173, 1993). Briefly, rats were anesthetized by subcutaneous injection of 1.25 g/kg (5 ml/kg) urethane, after which the urinary bladder was catheterized via the urethra using PE 50 polyethylene tubing filled with physiological saline. The catheter was tied in place with a ligature around the external urethral orifice and was connected with conventional pressure transducers (Statham P23 ID/P23 XL). […] The bladder was then filled via the recording catheter by incremental volumes of warm (37° C.) saline until reflex bladder voiding contractions occurred (usually 0.8-1.5 ml). For intravenous (i.v.) injection of bioactive compounds, PE 50 polyethylene tubing filled with physiological saline was inserted into the jugular vein. From the cystometrogram, the number of contractions recorded 15 min before (basal values) and after treatment, as well as the mean amplitude of these contractions (mean height of the peaks in mmHg) was evaluated.
Since most compounds produced an effect that was relatively rapid in onset and led to a complete cessation of bladder contractions, bioactivity was conveniently estimated by measuring the duration of bladder quiescence (i.e., the duration of time during which no contractions occurred). The number of animals tested showing a reduction in the number of contractions >30% of that observed in the basal period was also recorded.
Also computed in this manner were extrapolated doses which induced a reduction of the number of contractions of greater than 30% in 50% of treated rats (ED50, frequency) by the method of Bliss (Bliss C. I., Quart. J. Pharm. Pharmacol. 11, 192-216, 1938). After the suppressive effects of drug injection wore off, the height of the contractile peaks was compared with the height of the peaks previously recorded after the control intravenous administration of vehicle. The potency of the tested compounds (ED50 value: the extrapolated doses inducing a 30% reduction of amplitude of the contractions in 50% of treated rats) was evaluated on a quantal basis by the method of Bliss (Bliss C. I., Quart. J. Pharm. Pharmacol. 11, 192-216, 1938).

[2] = target: T1, human 5-HT1A serotonergic receptor (Homo sapiens, UniProt P08908); experiment: Radioreceptor binding, recombinant human 5-HT1A receptors ([3H]8-OH-DPAT, HeLa membranes); conditions: recombinant human receptor, [3H]8-OH-DPAT; Ki from IC50 by Cheng & Prusoff; read-out: Binding affinity for the 5-HT1A receptor, Ki
T1 construct: expressed in transfected cells; host or cells: HeLa
T1 sequence (P08908 1-422): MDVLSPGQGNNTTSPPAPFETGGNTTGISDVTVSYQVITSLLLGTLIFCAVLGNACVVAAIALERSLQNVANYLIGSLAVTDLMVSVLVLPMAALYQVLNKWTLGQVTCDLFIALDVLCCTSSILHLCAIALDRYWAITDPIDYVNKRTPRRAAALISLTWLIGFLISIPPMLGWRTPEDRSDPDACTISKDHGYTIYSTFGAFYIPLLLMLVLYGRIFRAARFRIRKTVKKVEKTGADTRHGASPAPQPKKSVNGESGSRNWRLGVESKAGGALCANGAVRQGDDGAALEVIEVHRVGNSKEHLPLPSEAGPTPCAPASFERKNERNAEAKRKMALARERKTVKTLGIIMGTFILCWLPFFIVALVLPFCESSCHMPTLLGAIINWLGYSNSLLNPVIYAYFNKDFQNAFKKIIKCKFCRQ
Experimental: Genomic clone G-21 coding for the human 5-HT1A serotonergic receptor is stably transfected in a human cell line (HeLa). HeLa cells were grown as monolayers in Dulbecco's modified Eagle's medium (DMEM), supplemented with 10% fetal calf serum and gentamicin ([…]), 5% CO2 at 37° C. Cells were detached from the growth flask at 95% confluence by a cell scraper and were lysed in ice-cold 5 mM Tris and 5 mM EDTA buffer (pH 7.4). Homogenates were centrifuged at 40000×g×20 min and pellets were resuspended in a small volume of ice-cold 5 mM Tris and 5 mM EDTA buffer (pH 7.4) and immediately frozen and stored at −70° C. until use. On the day of experiment, cell membranes were resuspended in binding buffer: 50 mM Tris HCl (pH 7.4), 2.5 mM MgCl2, 10 μM pargiline (Fargin et al., Nature 335, 358-360, 1988). Membranes were incubated in a final volume of 1 ml for 30 min at 30° C. with 0.2-1 nM [3H]8-OH-DPAT, in absence or presence of competing drugs; non-specific binding was determined in the presence of 10 μM 5-HT. The incubation was stopped by addition of ice-cold Tris-HCl buffer and rapid filtration through 0.2% polyethyleneimine pretreated Whatman GF/B or Schleicher & Schuell GF52 filters.
The inhibition of specific binding of the radioligands by the tested drugs was analyzed to estimate the IC50 value by using the non-linear curve-fitting program Allfit (De Lean et al., Am. J. Physiol. 235, E97-E102, 1978). The IC50 value was converted to an affinity constant (Ki) by the equation of Cheng & Prusoff (Cheng, Y. C.; Prusoff, W. H. Biochem. Pharmacol. 22, 3099-3108, 1973).

urinary bladder = experiment: Cystometric parameters (cystometrogram) in conscious rats; assay type: in vivo, rat; conditions: for BVC after treatment / MP after treatment: mean ± S.E.; for change in vivo at 0.3 mg/kg / change in vivo at 1 mg/kg / change in vivo at 0.1 mg/kg: Rattus norvegicus, iv, 0.25 h, after vs before; for change in vivo at 0.3 mg/kg: i.v. 300 μg/kg; for change in vivo at 1 mg/kg: i.v. 1000 μg/kg; for change in vivo at 0.1 mg/kg: i.v. 100 μg/kg
Experimental: Male Sprague Dawley rats (Crl: CDo BR) weighing 250-350 g were used. The animals were housed with free access to food and water and maintained on a forced 12 h alternating light-dark cycle at 22-24° C. for at least one week, except during performance of the experiment. To quantify urodynamic parameters in conscious rats, cystometrographic studies were performed using procedures previously described (Guarneri et al., Pharmacol. Res., 24:175, 1991). […] An approximately 10 mm long midline incision was made in the shaved and cleaned abdominal wall. The urinary bladder was gently freed from adhering tissues, emptied, and then cannulated, via an incision at the dome, with a polyethylene cannula (Portex PP30), which was permanently sutured with silk thread. The cannula was exteriorized through a subcutaneous tunnel in the retroscapular area, where it was connected with a plastic adapter to avoid the risk of removal by the animal. For intravenous (i.v.) injection of test compounds, a PE 50 polyethylene tubing filled with physiological saline was inserted into the jugular vein and exteriorized in the retroscapular area. The rats were utilized exclusively one day after implantation. On the day of the experiment, the rats were placed in Bollman's cages, after a stabilization period of 20 min, and the free tip of the bladder catheter was connected through a T-shaped tube to a pressure transducer (Bentley T 800/Marb P 82) and to a peristaltic pump (Gilson minipuls 2) for a continuous infusion, at the constant rate of 0.1 ml/min, of saline solution into the urinary bladder. The intraluminal pressure signal during infusion was continuously recorded on a polygraph (Battaglia Rangoni KO 380 with ADCl/T amplifier).
Two urodynamic parameters were evaluated: bladder volume capacity (BVC) and micturition pressure (MP). BVC (in ml) is defined as the minimum volume infused after which detrusor contraction (followed by micturition) occurs. MP (in mm Hg) is defined as the maximal intravesical pressure induced by the contraction of detrusor during micturition. Basal BVC and MP values were calculated as the means of the first two recorded cystometrograms. At this point in the assay, the infusion was interrupted and the test compounds were administered. Fifteen minutes after intravenous administration two additional cystometrograms were recorded in each animal and the mean values of the two cystometrographic parameters were calculated. The statistical significance of the differences in urodynamic parameter values was evaluated by Student's t test for paired data.

[3] = extrapolated dose inducing 10 min of disappearance of the contractions, intravenous, anaesthetized rats
[4] = extrapolated dose inducing a reduction of the number of contractions >30% in 50% of treated rats, intravenous, read-out: ED50 (frequency)

Row | Structure (SMILES) | ED (10 min disappearance of contractions) [1, 3] | ED50 [1, 4] | Ki [2] | BVC after treatment (urinary bladder; 15 min after i.v. 300 μg/kg) | MP after treatment (urinary bladder; 15 min after i.v. 300 μg/kg) | BVC after treatment (urinary bladder; 15 min after i.v. 1000 μg/kg) | change in vivo at 0.3 mg/kg (urinary bladder; read-out: MP % of change) | other results
1 | COc1cc(N)ccc1N1CCN(CCN(C(=O)C2CCCCC2)c2ccccc2OCC(F)(F)F)CC1 [Example 66] | 0.167 mg/kg | 0.058 mg/kg | 0.76 nM | – | – | – | – | –
2 | COc1ccccc1N1CCN(CCN(C(=O)C2CCCCC2)c2ccccc2OCC(F)(F)F)CC1 [Example 42, 1-[N-[2-(2,2,2-trifluoroethoxy)phenyl]-N-cyclohexylcarbonyl-2-aminoethyl]-4-(2-methoxyphenyl)piperazine] | 0.033 mg/kg | 0.018 mg/kg | – | 0.89 ± 0.15 mL | 66.5 ± 9.9 mmHg | 1.00 ± 0.16 mL | -20% | MP after treatment (urinary bladder; 15 min after i.v. 1000 μg/kg): 70.3 ± 7.8 mmHg; change in vivo at 0.3 mg/kg (urinary bladder; read-out: BVC % of change): 26.4%; change in vivo at 1 mg/kg (urinary bladder; read-out: BVC % of change): 41.7%; change in vivo at 1 mg/kg (urinary bladder; read-out: MP % of change): -9.2%
3 | CCN(CC)CC#CCOC(=O)C(O)(c1ccccc1)C1CCCCC1 (centres unmarked) [Oxybutinin, oxybutynin, reference compound] | 7.77 mg/kg | > 10 mg/kg | – | 0.83 ± 0.12 mL | 50.5 ± 6.3 mmHg | 1.00 ± 0.18 mL | -38.6% | ED50 ([1]; extrapolated dose inducing 30% reduction of amplitude of the contractions in 50% of treated rats, intravenous, n.a. = not active, no significant reduction of the height of peaks, read-out: ED50 (amplitude)): 0.24 mg/kg; BVC after treatment (urinary bladder; 15 min after i.v. 100 μg/kg): 0.89 ± 0.18 mL; MP after treatment (urinary bladder; 15 min after i.v. 100 μg/kg): 77.4 ± 10.3 mmHg; change in vivo at 0.1 mg/kg (urinary bladder; read-out: BVC % of change): 8.5%; change in vivo at 0.1 mg/kg (urinary bladder; read-out: MP % of change): -18.7%; effect on MP (in words) (urinary bladder; conscious rats, i.v.): markedly and dose-dependently decreased MP
4 | COc1cc(NC(C)=O)ccc1N1CCN(CCN(C(=O)C2CCCCC2)c2ccccc2OC(F)(F)F)CC1 [Example 57, 1-[N-cyclohexylcarbonyl-N-(2-trifluoromethoxyphenyl)-2-aminoethyl]-4-(4-acetylamino-2-methoxyphenyl)piperazine] | 0.254 mg/kg | 0.252 mg/kg | 0.74 nM | – | – | – | – | –
5 | Cc1c(-c2ccccc2)oc2c(C(=O)OCCN3CCCCC3)cccc2c1=O [Flavoxate, flavoxate, reference compound] | > 10 mg/kg | – | – | 0.87 ± 0.11 mL | 95.0 ± 10.9 mmHg | 1.11 ± 0.16 mL | 6.5% | MP after treatment (urinary bladder; 15 min after i.v. 1000 μg/kg): 80.1 ± 11.1 mmHg; change in vivo at 0.3 mg/kg (urinary bladder; read-out: BVC % of change): 14.5%; change in vivo at 1 mg/kg (urinary bladder; read-out: BVC % of change): 26.1%; change in vivo at 1 mg/kg (urinary bladder; read-out: MP % of change): -11.4%; i.v. dose at which a significant increase in BVC was observed (urinary bladder; conscious rats, i.v.): 1.0 mg/kg
6 | COc1ccccc1NCCN1CCN(c2cccc3[nH]ccc23)CC1 [Example 47, 1-[N-(2-methoxyphenyl)-2-aminoethyl]-4-(4-indolyl)piperazine] | 0.181 mg/kg | 0.02 mg/kg | 2.33 nM | – | – | – | – | –
7 | COc1cc(N)ccc1N1CCN(CCN(C(=O)C2CCCCC2)c2ccccc2OC(F)(F)F)CC1 [Example 56, 1-[N-cyclohexylcarbonyl-N-(2-trifluoromethoxyphenyl)-2-aminoethyl]-4-(4-amino-2-methoxyphenyl)piperazine] | 0.061 mg/kg | 0.021 mg/kg | 2.13 nM | – | – | – | – | –
8 | O=C(C1CCCCC1)N(CCN1CCN(c2cccc3[nH]ccc23)CC1)c1ccccc1OCC(F)(F)F [Example 69, 1-[N-cyclohexylcarbonyl-N-[2-(2,2,2-trifluoroethoxyphenyl)]-2-aminoethyl]-4-(4-indolyl)piperazine] | 0.06 mg/kg | 0.014 mg/kg | 0.32 nM | – | – | – | – | –
9 | COc1ccccc1N1CCN(CCN(C(=O)C2CCCCC2)c2cccc([N+](=O)[O-])c2)CC1 [Compound B, 1-[N-(3-nitrophenyl)-N-cyclohexylcarbonyl-2-aminoethyl]-4-(2-methoxypheny)piperazine, reference compound] | – | – | – | – | – | – | – | ED10 min [1, 3]: >1 mg/kg; ED50 (frequency) ([1]; extrapolated dose inducing a reduction of the number of contractions >30% in 50% of treated rats, intravenous): >1 mg/kg; pharmacological activity on bladder voiding contractions (in words) ([1]; nitro group at position 3 or 4 of the aniline ring): pharmacological activity was abolished
10 | COc1ccccc1N1CCN(CCNc2ccccc2C(C)=O)CC1 [Example 11, 1-[N-(2-acetylphenyl)-2-aminoethyl]-4-(2-methoxyphenyl)piperazine] | 0.318 mg/kg | 0.04 mg/kg | 2.92 nM | – | – | – | – | –
